Test results taken from patent US20100285959A1, “HERBICIDAL MIXTURES” (priority 2006, published 2010).

Assays:
[1] = test system: smallflower umbrella sedge (CYPDI); experiment: Test 32 greenhouse, simulated flooded rice culture; format: in vivo, Cyperus difformis; settings: postemergence to flood, 21 DAA
Description: (§1) A greenhouse trial was conducted to evaluate the effects of Compound 1 and isoxadifen-ethyl at different ratios in simulated flooded rice culture. Plastic pots (11-cm diameter) were partially filled with non-sterilized Tama silt loam soil containing a 15:57:28 ratio of sand, silt and clay and 2.9% organic matter. Seeds of Heteranthera limosa (ducksalad; HETLI), Cyperus difformis (smallflower umbrella sedge; CYPDI), one stand of Echinochloa crus-galli (barnyardgrass; ECHCG), and one stand of four rice seedlings (Oryza sativa cv. ‘M202’; ORYSA) were planted into a single 11-cm diameter pot for each rate and mixture of rates. To obtain this planting, C. difformis and H. limosa seeds were planted separately on the surface soil layer at particular locations within each pot. Water levels were brought to a puddled condition above the soil surface directly after planting. E. crus-galli and rice seeds were planted in cavity trays in the silt loam soil and transplanted at the 1.5 and 2.0 leaf stage, respectively. E. crus-galli and rice plants were transplanted to about 2-cm depth by transferring plugs from the cavity trays. Plantings were sequential so that these plant species all reached the 2.0- to 2.5-leaf stage in the 11-cm diameter pot at time of treatment. Plantings were established and maintained in a greenhouse with day and night temperatures of about 29.5 and 26.7° C. respectively; supplemental balanced lighting was provided to maintain a 16-hour photoperiod. Pots were fertilized periodically with a 200 ppm solution of commercial Scotts Peters® Professional® General Purpose 20-20-20 Water Soluble Fertilizer, amended to 10 ppm with a commercial iron-chelate micronutrient fertilizer. The solution was supplied at time of watering via a liquid fertilizer injector.
(§2) At treatment time, test pots were flooded to 3 cm above the soil surface and maintained at that water depth for the duration of the test. Chemical treatments were formulated in acetone and applied directly to the paddy water (i.e., postemergence to flood). Make-up volumes of acetone were added to ensure that all pots were treated with a consistent volume. Test pots were maintained in the greenhouse. A randomized complete block design was employed. Five replicates of each treatment, alone and in mixture, were used. Each species was visually evaluated for treatment effects by comparing those treated to untreated controls and rated for plant response after 21 days.

rice (ORYSA) = experiment: Test 32 greenhouse, simulated flooded rice culture; format: in vivo, Oryza sativa; settings: postemergence to flood, 21 DAA
Description: as §1, §2

barnyardgrass (ECHCG) [2] = experiment: Test 32 greenhouse, simulated flooded rice culture; format: in vivo, Echinochloa crus-galli; design: scale not given here; settings: postemergence to flood, 21 DAA
Description: as §1, §2

corn (ZEAMD) = experiment: Test 28 greenhouse, post- and preemergence; format: in vivo, Zea mays ssp. indentata; settings: 26 DAA
Description: (§3) A greenhouse test was conducted to evaluate the effects on the plant species corn (ZEAMD, Zea mays ssp. indentata), sorghum (SORVU, Sorghum vulgare L.), dry-seeded rice (ORYSA, Oryza sativa L.), wheat (TRZAW, Triticum aestivum L.), ivyleaf morningglory (IPOHE, Ipomoea hederacea (L.) JACQ.), and barnyardgrass (ECHCG, Echinochloa crus-galli (L.) P. BEAUV.), of mixtures of Compound 2 with isoxadifen-ethyl. Corn, sorghum, rice, wheat, ivyleaf morningglory and barnyardgrass seeds were planted in RediEarth, a commercial potting medium. […] Corn plants were treated postemergence at the V2 growth stage, and sorghum, rice, wheat, ivyleaf morningglory, and barnyardgrass plants were treated postemergence at the 3-leaf stage. […] Each treatment was replicated three times. […] Plants were watered as needed.

dry-seeded rice (ORYSA) = experiment: Test 28 greenhouse, postemergence; format: in vivo, Oryza sativa; settings: 26 DAA
Description: as §3

barnyardgrass (ECHCG) [3] = experiment: Test 28 greenhouse, postemergence; format: in vivo, Echinochloa crus-galli; settings: 26 DAA
Description: as §3

wheat (TRZAW) = experiment: Test 28 greenhouse, post- and preemergence; format: in vivo, Triticum aestivum; settings: 26 DAA
Description: as §3

[4] = test system: ivyleaf morningglory (IPOHE); experiment: Test 28 greenhouse, postemergence; format: in vivo, Ipomoea hederacea; settings: 26 DAA
Description: as §3

ducksalad (HETLI) = experiment: Test 32 greenhouse, simulated flooded rice culture; format: in vivo, Heteranthera limosa; design: scale not given here; settings: postemergence to flood, 21 DAA
Description: as §1, §2

sorghum (SORVU) = experiment: Test 28 greenhouse, postemergence; format: in vivo, Sorghum vulgare; settings: 26 DAA
Description: as §3

[5] = Isoxadifen-ethyl 31.25 g a.i./ha
[6] = Isoxadifen-ethyl 62.5 g a.i./ha
[7] = Isoxadifen-ethyl 1000 g a.i./ha
[8] = Isoxadifen-ethyl 1500 g a.i./ha
[9] = postemergence, Isoxadifen-ethyl 64 g a.i./ha
[10] = postemergence, Isoxadifen-ethyl 128 g a.i./ha
[11] = postemergence, Isoxadifen-ethyl 256 g a.i./ha
[12] = postemergence, Isoxadifen-ethyl 512 g a.i./ha
[13] = postemergence, Isoxadifen-ethyl 1024 g a.i./ha
[14] = preemergence, Isoxadifen-ethyl 64 g a.i./ha
[15] = preemergence, Isoxadifen-ethyl 128 g a.i./ha
[16] = preemergence, Isoxadifen-ethyl 256 g a.i./ha
[17] = preemergence, Isoxadifen-ethyl 512 g a.i./ha
[18] = preemergence, Isoxadifen-ethyl 1024 g a.i./ha
[19] = Isoxadifen-ethyl 1024 g a.i./ha

CCOC(=O)C1=NOC(c2ccccc2)(c2ccccc2)C1 [Isoxadifen-ethyl]
CYPDI Obs [1, 5]: 28 | CYPDI Obs [1, 6]: 24 | CYPDI Obs ([1]; Isoxadifen-ethyl 125 g a.i./ha): 84 | CYPDI Obs ([1]; Isoxadifen-ethyl 250 g a.i./ha): 59 | CYPDI Obs ([1]; Isoxadifen-ethyl 500 g a.i./ha): 49 | CYPDI Obs [1, 7]: 53 | CYPDI Obs [1, 8]: 59 | ORYSA Obs (rice (ORYSA); [5]): 2% | ORYSA Obs (rice (ORYSA); [6]): 5% | ORYSA Obs (rice (ORYSA); Isoxadifen-ethyl 125 g a.i./ha): 11% | ORYSA Obs (rice (ORYSA); Isoxadifen-ethyl 250 g a.i./ha): 7% | ORYSA Obs (rice (ORYSA); Isoxadifen-ethyl 500 g a.i./ha): 5% | ORYSA Obs (rice (ORYSA); [7]): 5% | ORYSA Obs (rice (ORYSA); [8]): 10% | ECHCG Obs (barnyardgrass (ECHCG) [2]; [5]): 4 | ECHCG Obs (barnyardgrass (ECHCG) [2]; [6]): 9 | ECHCG Obs (barnyardgrass (ECHCG) [2]; Isoxadifen-ethyl 125 g a.i./ha): 15 | ECHCG Obs (barnyardgrass (ECHCG) [2]; Isoxadifen-ethyl 250 g a.i./ha): 10 | ECHCG Obs (barnyardgrass (ECHCG) [2]; Isoxadifen-ethyl 500 g a.i./ha): 5 | ECHCG Obs (barnyardgrass (ECHCG) [2]; [7]): 8 | ECHCG Obs (barnyardgrass (ECHCG) [2]; [8]): 9 | ZEAMD Obs (corn (ZEAMD); [9]): 0 | ZEAMD Obs (corn (ZEAMD); [10]): 0 | ZEAMD Obs (corn (ZEAMD); [11]): 0 | ZEAMD Obs (corn (ZEAMD); [12]): 0 | ZEAMD Obs (corn (ZEAMD); [13]): 0 | ZEAMD Obs (corn (ZEAMD); [14]): 0 | ZEAMD Obs (corn (ZEAMD); [15]): 0 | ZEAMD Obs (corn (ZEAMD); [16]): 0 | ZEAMD Obs (corn (ZEAMD); [17]): 0 | ZEAMD Obs (corn (ZEAMD); [18]): 0 | ORYSA Obs (dry-seeded rice (ORYSA); Isoxadifen-ethyl 64 g a.i./ha): 0 | ORYSA Obs (dry-seeded rice (ORYSA); Isoxadifen-ethyl 128 g a.i./ha): 0 | ORYSA Obs (dry-seeded rice (ORYSA); Isoxadifen-ethyl 256 g a.i./ha): 0 | ORYSA Obs (dry-seeded rice (ORYSA); Isoxadifen-ethyl 512 g a.i./ha): 0 | ORYSA Obs (dry-seeded rice (ORYSA); [19]): 0 | ECHCG Obs (barnyardgrass (ECHCG) [3]; Isoxadifen-ethyl 64 g a.i./ha): 0 | ECHCG Obs (barnyardgrass (ECHCG) [3]; Isoxadifen-ethyl 128 g a.i./ha): 0 | ECHCG Obs (barnyardgrass (ECHCG) [3]; Isoxadifen-ethyl 256 g a.i./ha): 0 | ECHCG Obs (barnyardgrass (ECHCG) [3]; Isoxadifen-ethyl 512 g a.i./ha): 0 | ECHCG Obs (barnyardgrass (ECHCG) [3]; [19]): 0 | TRZAW Obs (wheat (TRZAW); [9]): 0% | TRZAW Obs (wheat (TRZAW); [10]): 0% | TRZAW Obs (wheat (TRZAW); [11]): 0% | TRZAW Obs (wheat (TRZAW); [12]): 0% | TRZAW Obs (wheat (TRZAW); [13]): 0% | TRZAW Obs (wheat (TRZAW); [14]): 0% | TRZAW Obs (wheat (TRZAW); [15]): 0% | TRZAW Obs (wheat (TRZAW); [16]): 0% | TRZAW Obs (wheat (TRZAW); [17]): 0% | TRZAW Obs (wheat (TRZAW); [18]): 0% | IPOHE Obs ([4]; Isoxadifen-ethyl 64 g a.i./ha): 0 | IPOHE Obs ([4]; Isoxadifen-ethyl 128 g a.i./ha): 0 | IPOHE Obs ([4]; Isoxadifen-ethyl 256 g a.i./ha): 0 | IPOHE Obs ([4]; Isoxadifen-ethyl 512 g a.i./ha): 0 | IPOHE Obs [4, 19]: 0 | HETLI Obs (ducksalad (HETLI); [5]): 10 | HETLI Obs (ducksalad (HETLI); [6]): 29 | HETLI Obs (ducksalad (HETLI); Isoxadifen-ethyl 125 g a.i./ha): 35 | HETLI Obs (ducksalad (HETLI); Isoxadifen-ethyl 250 g a.i./ha): 19 | HETLI Obs (ducksalad (HETLI); Isoxadifen-ethyl 500 g a.i./ha): 23 | HETLI Obs (ducksalad (HETLI); [7]): 25 | HETLI Obs (ducksalad (HETLI); [8]): 36 | SORVU Obs (sorghum (SORVU); Isoxadifen-ethyl 64 g a.i./ha): 0% | SORVU Obs (sorghum (SORVU); Isoxadifen-ethyl 128 g a.i./ha): 0% | SORVU Obs (sorghum (SORVU); Isoxadifen-ethyl 256 g a.i./ha): 0% | SORVU Obs (sorghum (SORVU); Isoxadifen-ethyl 512 g a.i./ha): 0% | SORVU Obs (sorghum (SORVU); [19]): 0%
